Source: patent US12649712B2, “Indene compounds, pharmaceutical compositions thereof, and their therapeutic applications” (NucMito Pharmaceuticals Co. Ltd., priority 2020, dated 2026)

Each compound was assayed on alpha-smooth muscle actin (α-SMA) (assay: Inhibition of TGF-β induced expression of alpha-smooth muscle actin (α-SMA) in CFSC cells, western blot). Settings: compound at 10 μM, TGF-β (10 ng/mL), 24 hours, decrease in band intensity vs TGF-β only.
Type: cell-based
Description: The ability of a compound to inhibit the TGF-β induced expression of alpha-smooth muscle actin (α-SMA) was evaluated in CCL4-treated fat storing (CFSC) cells. α-SMA is considered as a reliable marker of hepatic stellate cell activation and a key biomarker for liver fibrosis. See, e.g., Meng et al., Nat. Rev. Nephrol. 2016, 12, 325-38; Fabregat et al., FEBS J. 2016, 283, 2219-32.
CFSC cells maintained in a DMEM medium supplemented with 10% fetal bovine serum were seeded to 12-well culture dishes and grown to a confluence of 60-70% the next day. Culture was changed to a serum-free DMEM medium and treated with a compound at 10 μM in the presence of TGF-β (10 ng/mL). The cells were incubated for another 24 hours. All culture was maintained at 37° C. in 5% carbon dioxide.
A NP-40 lysate solution (50 mM Tris (pH 7.4), 150 mM NaCl, 1% NP-40) with EDTA free cocktail added was used to lyse the cells on ice for 30 min. The lysate was collected and centrifuged at 4° C. for 10 min at 12,000 rpm. The pellet was discarded and the supernatant was transferred to a new tube. Cell lysates were loaded with 5×loading buffer and boiled for 10 min, resolved by 10% SDS-polyacrylamide gel electrophoresis (SDS-PAGE), and transferred to PVDF membrane. The membrane was blocked with 5% skim milk in Tris-buffered saline and TWEEN® 20 (TBST; 10 mM Tris-HCl (pH 8.0), 150 mM NaCl, 0.1% TWEEN® 20) for 1 h at room temperature and then incubated with α-SMA and […] antibodies overnight at 4° C. After washing twice with TBST, the membrane was probed with a horseradish […] anti-immunoglobulin (1:5000 dilution) for 1 h at room temperature. After two subsequent rinses in TBST, immunoreactive products were reacted with ECL and visualized by a UVP CHEMSTUDIO™ imaging system. The western blotting bands are quantitated using an ImageJ software. The percentage of inhibition was obtained by calculating the percentage decrease in the band intensity compared to the one treated with TGF-β only.
The results are summarized in Table 1, wherein A represents a value no less of 90% inhibition, B represents a value less than 90% but no less than 80% inhibition, C represents a value less than 80% but no less than 70% inhibition, D represents a value less than 70% but no less than 50% inhibition, and E represents a value less than 50% with a compound at 10 μM.

| SMILES | inhibition at 10 µM [%] |
| --- | --- |
| CC1=C(CC(=O)N(C)O)c2cc(F)ccc2/C1=C\c1ccc(Oc2ccc(F)cc2)cc1 [Compound C2, 2-[(1Z)-5-Fluoro-1-{[4-(4-fluorophenoxy)phenyl]methylidene}-2-methyl-1H-inden-3-yl]-N-hydroxy-N-methylacetamide] | > 90 |
| CC1=C(CC(=O)N(C)O)c2cc(F)ccc2/C1=C\c1cccc(Oc2ccccc2)c1 [Compound C3, (Z)-2-(5-Fluoro-2-methyl-1-(3-phenoxybenzylidene)-1H-inden-3-yl)-N-hydroxy-N-methylacetamide] | 80 to 90 |
| CC1=C(CC(=O)NO)c2cc(F)ccc2/C1=C\c1ccc(Oc2ccc(C(C)C)cc2)cc1 [Compound D1, 2-[(1Z)-5-Fluoro-2-methyl-1-({4-[4-(propan-2-yl)phenoxy]phenyl}methylidene)-1H-inden-3-yl]-N-hydroxyacetamide] | > 90 |
| CC1=C(CC(=O)O)c2cc(F)ccc2/C1=C\c1ccc(Oc2ccc(C(C)(C)C)cc2)cc1 [Compound D2, 2-[(1Z)-5-Fluoro-2-methyl-1-({4-[4-(tert-butyl)phenoxy]phenyl}methylidene)-1H-inden-3-yl]acetic acid] | > 90 |
| CC1=C(CC(=O)O)c2cc(F)ccc2/C1=C\c1ccc(Oc2cccc(C(C)(C)C)c2)cc1 [Compound D3, 2-[(1Z)-5-Fluoro-2-methyl-1-({4-[3-(tert-butyl)phenoxy]phenyl}methylidene)-1H-inden-3-yl]acetic acid] | > 90 |
| CC1=C(CC(=O)O)c2cc(F)ccc2/C1=C\c1ccc(Oc2ccc(C)c(F)c2)cc1 [Compound D4, 2-[(1Z)-5-Fluoro-2-methyl-1-({4-[3-fluoro-4-methylphenoxy]phenyl}-methylidene)-1H-inden-3-yl]acetic acid] | < 50 |
| CC1=C(CC(=O)O)c2cc(F)ccc2/C1=C\c1ccc(Oc2ccc(F)c(F)c2)cc1 [Compound D5, 2-[(1Z)-5-Fluoro-2-methyl-1-({4-[3,4-difluorophenoxy]phenyl}methylidene)-1H-inden-3-yl]acetic acid] | > 90 |
| CC1=C(CC(=O)O)c2cc(F)ccc2/C1=C\c1ccc(Oc2cccc([N+](=O)[O-])c2)cc1 [Compound D6, 2-[(1Z)-5-Fluoro-2-methyl-1-({4-[3-nitrophenoxy]phenyl}methylidene)-1H-inden-3-yl]acetic acid] | < 50 |
| CC1=C(CC(=O)O)c2cc(F)ccc2/C1=C\c1ccc(Oc2ccc(C(F)(F)F)cc2)cc1 [Compound D7, 2-[(1Z)-5-Fluoro-2-methyl-1-({4-[4-(trifluoromethyl)phenoxy]phenyl}-methylidene)-1H-inden-3-yl]acetic acid] | > 90 |
| CC(C)CC1=C(CC(=O)O)c2cc(F)ccc2/C1=C\c1ccc(Oc2ccc(F)cc2)cc1 [Compound D8, 2-[(1Z)-5-Fluoro-1-{[4-(4-fluorophenoxy)phenyl]methylidene}-2-(2-methylpropyl)-1H-inden-3-yl]acetic acid] | > 90 |
| O=C(O)CC1=C(Cc2ccccc2)/C(=C/c2ccc(Oc3ccc(F)cc3)cc2)c2ccc(F)cc21 [Compound D9, 2-[(1Z)-5-Fluoro-2-benzyl-1-({4-[4-fluorophenoxy]phenyl}methylidene)-1H-inden-3-yl]acetic acid] | < 50 |
| COc1ccc2c(c1)C(CC(=O)O)=C(C)/C2=C/c1ccc(Oc2ccc(F)cc2)cc1 [Compound D10, 2-[(1Z)-5-Methoxy-2-methyl-1-({4-[4-fluorophenoxy]phenyl}methylidene)-1H-inden-3-yl]acetic acid] | > 90 |
| COc1ccc2c(c1)C(CC(=O)O)=C(C)/C2=C/c1ccc(Oc2ccccc2)cc1 [Compound D11, 2-[(1Z)-5-Methoxy-2-methyl-1-[(4-phenoxyphenyl)methylidene]-1H-inden-3-yl]acetic acid] | > 90 |
| CC1=C(CC(=O)O)c2cc(F)ccc2/C1=C\c1ccc(Oc2ccc(F)cc2)cc1C(F)(F)F [Compound D12, 2-[(1Z)-1-{[2-Trifluoromethyl-4-(4-fluorophenoxy)phenyl]methylidene}-5-fluoro-2-methyl-1H-inden-3-yl]acetic acid] | < 50 |
| CC1=C(CC(=O)O)c2cc(F)ccc2/C1=C\c1ccc(Oc2ccc(F)cc2)c(C)c1 [Compound D13, 2-[(1Z)-1-{[3-Methyl-4-(4-fluorophenoxy)phenyl]methylidene}-5-fluoro-2-methyl-1H-inden-3-yl]acetic acid] | < 50 |
| CC1=C(CC(=O)O)c2cc(F)ccc2/C1=C\c1ccc(Oc2ccc(F)cc2)cc1C [Compound D14, 2-[(1Z)-1-{[2-Methyl-4-(4-fluorophenoxy)phenyl]methylidene}-5-fluoro-2-methyl-1H-inden-3-yl]acetic acid] | > 90 |
| CC1=C(CC(=O)O)c2cc(F)cc(F)c2/C1=C\c1ccc(Oc2ccc(F)cc2)cc1 [Compound D15, 2-[(1Z)-5,7-Difluoro-2-methyl-1-({4-[4-fluorophenoxy]phenyl}methylidene)-1H-inden-3-yl]acetic acid] | > 90 |
| CC1=C(CC(=O)O)c2c(F)cc(F)cc2/C1=C\c1ccc(Oc2ccc(F)cc2)cc1 [Compound D16, 2-[(1Z)-4,6-Difluoro-2-methyl-1-({4-[4-fluorophenoxy]phenyl}methylidene)-1H-inden-3-yl]acetic acid] | < 50 |
| CC1=C(CC(=O)O)c2cc(F)ccc2/C1=C\c1cccc(Oc2ccccc2)c1 [Compound D18, (Z)-2-(5-Fluoro-2-methyl-1-(3-phenoxybenzylidene)-1H-inden-3-yl)acetic acid] | > 90 |
| CC1=C(CC(=O)O)c2cc(F)ccc2/C1=C\c1ccccc1Oc1ccccc1 [Compound D19, 2-[(1Z)-5-Fluoro-1-(2-(phenoxy)benzylidene)-2-methyl-1H-inden-3-yl]-acetic acid] | < 50 |
| CC1=C(CC(=O)O)c2cc(F)cc(F)c2/C1=C\c1cccc(Oc2ccccc2)c1 [Compound D20, 2-[(1Z)-5,7-Difluoro-1-(3-(phenoxy)benzylidene)-2-methyl-1H-inden-3-yl]-acetic acid] | > 90 |
| CC1=C(CC(=O)O)c2c(F)cc(F)cc2/C1=C\c1cccc(Oc2ccccc2)c1 [Compound D21, 2-[(1Z)-4,6-Difluoro-1-(3-(phenoxy)benzylidene)-2-methyl-1H-inden-3-yl]-acetic acid] | > 90 |
| COc1ccc(Oc2cccc(/C=C3/C(C)=C(CC(=O)O)c4cc(F)ccc43)c2)cc1 [Compound D22, 2-[(1Z)-5-Fluoro-2-methyl-1-({3-[4-methoxyphenoxy]phenyl}methylidene)-1H-inden-3-yl]acetic acid] | > 90 |
| CC1=C(CC(=O)O)c2cc(F)ccc2/C1=C\c1ccc(F)c(Oc2ccccc2)c1 [Compound D23, 2-[(1Z)-5-Fluoro-1-(4-fluoro-3-(phenoxy)benzylidene)-2-methyl-1H-inden-3-yl]-acetic acid] | > 90 |
| CC1=C(CC(=O)O)c2cc(F)ccc2/C1=C\c1cccc(Oc2ccc(Cl)cc2)c1 [Compound D25, 2-[(1Z)-5-Fluoro-2-methyl-1-({3-[4-chlorophenoxy]phenyl}methylidene)-1H-inden-3-yl]acetic acid] | > 90 |
| CC1=C(CC(=O)O)c2cc(F)ccc2/C1=C\c1cccc(Oc2ccc(C(F)(F)F)cc2)c1 [Compound D26, 2-[(1Z)-5-Fluoro-2-methyl-1-({3-[4-trifluoromethylphenoxy]phenyl}-methylidene)-1H-inden-3-yl]acetic acid] | > 90 |
| CC1=C(CC(=O)O)c2cc(F)ccc2/C1=C\c1cccc(Oc2cccc(C(F)(F)F)c2)c1 [Compound D27, 2-[(1Z)-5-Fluoro-2-methyl-1-({3-[3-trifluoromethylphenoxy]phenyl}-methylidene)-1H-inden-3-yl]acetic acid] | > 90 |
| CC1=C(CC(=O)O)c2cc(F)ccc2/C1=C/c1ccc(Oc2ccc(F)c(F)c2)cc1 [Compound E1, 2-[(1E)-5-Fluoro-2-methyl-1-({4-[3,4-difluorophenoxy]phenyl}methylidene)-1H-inden-3-yl]acetic acid] | > 90 |
| CC1=C(CC(=O)O)c2cc(F)ccc2/C1=C/c1ccc(Oc2ccc(F)cc2)cc1 [Compound E2, 2-[(1E)-5-Fluoro-2-methyl-1-({4-[4-fluorophenoxy]phenyl}methylidene)-1H-inden-3-yl]acetic acid] | > 90 |
| CC1=C(CC(=O)O)c2cc(F)ccc2/C1=C/c1ccc(Oc2ccccc2)cc1 [Compound E3, 2-[(1E)-5-Fluoro-2-methyl-1-[(4-phenoxyphenyl)methylidene]-1H-inden-3-yl]acetic acid] | > 90 |
